Experimental findings from patent publication US6713638B2, “2-amino-3-aroyl-4,5 alkylthiophenes: agonist allosteric enhancers at human A1 adenosine receptors” (priority 2001, dated 2004) are described below.

In experiment [1] the target is T1, hA1AR (Homo sapiens, UniProt P30542).
T1 construct: expressed in transfected cells; membranes
T1 sequence (P30542 1-326): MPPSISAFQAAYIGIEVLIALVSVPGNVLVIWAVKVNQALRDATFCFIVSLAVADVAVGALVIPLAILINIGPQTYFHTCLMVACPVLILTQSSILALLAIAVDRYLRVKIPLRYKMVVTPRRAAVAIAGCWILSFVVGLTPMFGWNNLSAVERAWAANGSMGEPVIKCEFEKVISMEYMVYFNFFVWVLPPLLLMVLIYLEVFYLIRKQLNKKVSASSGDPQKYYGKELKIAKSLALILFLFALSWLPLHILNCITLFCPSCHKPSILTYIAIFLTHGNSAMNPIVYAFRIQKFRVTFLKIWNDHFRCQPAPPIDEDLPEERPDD
Kind of experiment: Assay of AE (allosteric enhancer) activity: slowing of 125I-ABA dissociation from the A1AR-G protein ternary complex. The experiment is classed as binding. Particulars: CHO-K1 membranes; for AE Score, %: 0.1 mM final AE, specifically bound 125I-ABA remaining after 10 minutes of dissociation, Mean ± SEM (N = 3); for AE activity (in words): hA1AR. An excerpt:
The allosteric enhancer (AE) activity was studied at the human A1AR (hA1AR) of a panel of compounds consisting of nine 2-amino-3-aroylthiophenes, (3a-i), eight 2-amino-3-benzoyl-4,5-dimethylthiophenes (13a-h), […] 3-aroyl-2-carboxy-4,5-dimethylthiophenes, (17a-e), ten 2-amino-3-benzoyl-5,6-ihydro-4H-cyclopenta[b]thiophenes, (19a-I), fourteen 2-amino-3-benzoyl-4,5,6,7-tetrahyd robenzo-[b]thiophenes, (20a-n), and fifteen 2-amino-3-benzoyl-5,6,7,8-tetrahydro-4H-cyclohepta[b]thiophenes, (21a-o). An in vitro assay employing the A1AR agonist ^125I-N^6-aminobenzyladenosine (^125I-ABA) and membranes from CHO-K1 cells stably expressing the hA1AR measured, as an index of AE activity, the ability of a candidate AE to slow the dissociation of the radioligand from the A1AR-G protein ternary complex.
The assay of AE activity consisted of three phases: formation of the ^125I-ABA-A1AR-G protein ternary complex; binding of the AE to the allosteric site, and dissociation of the complex by adding a combination of an A1AR antagonist (100 μM cyclopentyltheophylline) and 50 µM GTPγS. This procedure detects only AE activity since phase 3 (dissociation) is affected only by the allosteric activity of the test compound and is not affected by competitive antagonist activity. GTPγS is added to accelerate the dissociation process. […] The assay employed membranes from CHO-K1 cells stably expressing the hA1AR. For agonist binding to equilibrium, the incubation mixture consisted of 10 mM HEPES, pH 7.2, containing 0.5 mM MgCl2, 1 U/mL adenosine deaminase, 0.5 nM ^125I-ABA and 10 μg of membrane protein in a final volume of 100 μL. This phase of the assay was allowed to proceed to equilibrium (>90 minutes) at room temperature. At that point phase 2 was initiated by adding 50 μL of a 0.3 mM solution (0.1 mM final) of a candidate AE or DMSO vehicle to rapidly occupy the allosteric site. Stock solutions of AEs (10 mM) were prepared in DMSO. Five minutes later phase 3 was initiated by the addition of 50 μL of a solution containing 400 μM 8-cyclopentyltheophylline and 200 μM GTPγS. Ten minutes later, residual radioligand bound to Aireceptors was trapped on Whatman GF/C glass fiber filters using a Brandel cell harvester, washed 3 times over a 20 second interval and counted in a γ-counter. The percentage of specifically bound agonist remaining after 10 minutes of dissociation was used to calculate the “score” of AE activity:
AE activity score=100×(B−Bo)/(Beq−Bo)
Where B=residual binding (cpm) bound at the end of 10 minutes of dissociation in the presence of an AE, Bo=residual binding (cpm) at the end of 10 minutes of dissociation in the absence of an AE, and Beq=cpm bound at the end of phase 2. A compound with no AE activity has a score of 0 in this assay. An AE which completely arrests agonist dissociation will have a score of 100.

Experiment [2] deals with T2, A1AR (Homo sapiens, UniProt P30542).
T2 sequence (P30542 1-326): T1 sequence (P30542 1-326)
Kind of experiment: A1AR antagonistic activity: competition with equilibrium binding of [3H]CPX. Particulars: 100 μM; N = 3. An excerpt:
Several of the candidate AEs had substantial antagonistic activity. However, the AE and antagonist activities are unrelated (r^2=0.057, n=28).

Entries after “also recorded” stand apart in the source; their conditions may differ.

Regarding “3-benzoyl-4,5-dimethylthiophene-2-carboxylic acid [Compound 17a]”, in experiment [1], the “AE Score, %” value is 0%. Still for that read-out and setting: the figure for `Nc1sccc1C(=O)c1cccc(F)c1` [Compound 3b] is 0%. On the same count and under the same terms, to `Nc1sccc1C(=O)c1cccc(Cl)c1` [Compound 3c] belongs 0%. On the same count and under the same terms, to `Nc1sccc1C(=O)c1cccc(Br)c1` [Compound 3d] belongs 0.2 ± 0.03%.

As for `Nc1sccc1C(=O)c1ccc(F)cc1` [Compound 3e], the “AE Score, %” value in experiment [1] is 0%. Turning to `Nc1sccc1C(=O)c1ccc(Cl)cc1` [Compound 3f], in experiment [1], the “AE Score, %” value was 0%.

With `Nc1sccc1C(=O)c1ccc(Br)cc1` [Compound 3g], the “AE Score, %” value in experiment [1] amounted to 0.8 ± 0.3%. Regarding `Nc1sccc1C(=O)c1ccc(Cl)c(Cl)c1` [Compound 3h], the “AE Score, %” value in experiment [1] was determined as 1.7 ± 0.8%.

In the case of `Nc1sccc1C(=O)c1ccc2ccccc2c1` [Compound 3i], the “AE Score, %” value in experiment [1] was 3.2 ± 1.8%.

Turning to `Cc1sc(N)c(C(=O)c2ccccc2)c1C` [Compound 13a, (2-amino-4,5-dimethyl-thiophen-3-yl)(phenyl)methanone], the “AE Score, %” value in experiment [1] came out at 9%. Regarding `Cc1sc(N)c(C(=O)c2cccc(F)c2)c1C` [Compound 13b], the “AE Score, %” value in experiment [1] stood at 0%.

With `Cc1sc(N)c(C(=O)c2cccc(Cl)c2)c1C` [Compound 13c], the “AE Score, %” value in experiment [1] is given as 14 ± 1%. For `Cc1sc(N)c(C(=O)c2cccc(Br)c2)c1C` [Compound 13d], the “AE Score, %” value in experiment [1] is given as 16 ± 4%.

For `Cc1cccc(C(=O)c2c(N)sc(C)c2C)c1` [Compound 13e], in experiment [1], the “AE Score, %” value amounted to 18 ± 0.5%. As to `Cc1sc(N)c(C(=O)c2cccc(-c3ccccc3)c2)c1C` [Compound 13g], the “AE Score, %” value in experiment [1] is 12 ± 1.9%. With `Cc1cc(C)c(C(=O)c2c(N)sc(C)c2C)c(C)c1` [Compound 13h], the “AE Score, %” value in experiment [1] is 0%. Take `Cc1sc2c(c1C)C(c1cccc(F)c1)=Nc1sc(C)c(C)c1C(c1cccc(F)c1)=N2` [Compound 14, 4,9-bis-(3-fluorophenyl)-2,3,7,8-tetramethyl-1,6-dithia-5,10-diaza-dicyclopenta[a,e]-cyclooctene]: the “AE activity (in words)” value in experiment [1] is “lacked AE activity”.

For the compound `Cc1sc(C(=O)O)c(C(=O)c2cccc(C(F)(F)F)c2)c1C` [Compound 17b], the “AE Score, %” value in experiment [1] turned out to be 0%. Still for that read-out and setting: the figure for `Cc1sc(C(=O)O)c(C(=O)c2ccc(-c3ccccc3)cc2)c1C` [Compound 17c] is 0%. In the case of `CCOC(=O)c1c(N)sc2c1CCC2` [Compound 19a], the “Antagonist activity, % (% inhibition of specific equilibrium binding of [3H]8-cyclopentyl-1,3-dipropylxanthine)” value in experiment [2] stood at 72%. Besides, in experiment [1], the “AE Score, %” value is given as 0.4 ± 0.1%; the “AE activity (in words)” value was “did not support AE activity; also recorded: None of the cycloalkylthiophenes having a 3-carboxyethyl substituent, namely, 19a, 20a and 21a, was active”.

`Nc1sc2c(c1C(=O)c1ccccc1)CCC2` [Compound 19b]: the “Antagonist activity, % (% inhibition of specific equilibrium binding of [3H]8-cyclopentyl-1,3-dipropylxanthine)” value in experiment [2] turned out to be 63%. Also, the “AE Score, %” value in experiment [1] was found to be 20 ± 3.6%. Consider `Nc1sc2c(c1C(=O)c1cccc(Cl)c1)CCC2` [Compound 19c], for which, in experiment [1], the “AE Score, %” value is 16 ± 2%. For `Nc1sc2c(c1C(=O)c1ccc(F)cc1)CCC2` [Compound 19e], the “Antagonist activity, % (% inhibition of specific equilibrium binding of [3H]8-cyclopentyl-1,3-dipropylxanthine)” value in experiment [2] is on record as 36%. The “AE Score, %” value in experiment [1] was 68 ± 1%. Taken in the same sequence, the figures for `Nc1sc2c(c1C(=O)c1ccc(Cl)cc1)CCC2` [Compound 19f] were 40% and 22 ± 4%. In the case of `Nc1sc2c(c1C(=O)c1ccc(Br)cc1)CCC2` [Compound 19g], the “AE Score, %” value in experiment [1] came to 70 ± 7%.

With `Nc1sc2c(c1C(=O)c1ccc(-c3ccccc3)cc1)CCC2` [Compound 19h], the “Antagonist activity, % (% inhibition of specific equilibrium binding of [3H]8-cyclopentyl-1,3-dipropylxanthine)” value in experiment [2] is given as 12%. Further, the “AE Score, %” value in experiment [1] was determined as 62 ± 5%. With `CCOC(=O)c1c(N)sc2c1CCCC2` [Compound 20a], in experiment [2], the “Antagonist activity, % (% inhibition of specific equilibrium binding of [3H]8-cyclopentyl-1,3-dipropylxanthine)” value turned out to be 57%. In experiment [1], the “AE Score, %” value worked out at 3.5 ± 1.8%; the “AE activity (in words)” value is “did not support AE activity; also recorded: None of the cycloalkylthiophenes having a 3-carboxyethyl substituent, namely, 19a, 20a and 21a, was active”.

On to `Nc1sc2c(c1C(=O)c1ccccc1)CCCC2` [Compound 20b], for which, in experiment [2], the “Antagonist activity, % (% inhibition of specific equilibrium binding of [3H]8-cyclopentyl-1,3-dipropylxanthine)” value is given as 35%. In experiment [1], the “AE Score, %” value came out at 19 ± 5%. Taken in the same sequence, the figures for `Nc1sc2c(c1C(=O)c1cccc(F)c1)CCCC2` [Compound 20c] were 40% and 22 ± 5%. The like results for `Nc1sc2c(c1C(=O)c1cccc(Cl)c1)CCCC2` [Compound 20d] were, in that order, 2% and 70 ± 9%.

Regarding `Nc1sc2c(c1C(=O)c1cccc(Br)c1)CCCC2` [Compound 20e], in experiment [1], the “AE Score, %” value is 49 ± 1%. As to `Nc1sc2c(c1C(=O)c1ccc(F)cc1)CCCC2` [Compound 20f], the “Antagonist activity, % (% inhibition of specific equilibrium binding of [3H]8-cyclopentyl-1,3-dipropylxanthine)” value in experiment [2] worked out at 51%. In addition, in experiment [1], the “AE Score, %” value was determined as 17 ± 3%.

On to `Nc1sc2c(c1C(=O)c1ccc(Cl)cc1)CCCC2` [Compound 20g], for which the “Antagonist activity, % (% inhibition of specific equilibrium binding of [3H]8-cyclopentyl-1,3-dipropylxanthine)” value in experiment [2] is on record as 9%. The “AE Score, %” value in experiment [1] is 68 ± 10%. For `Nc1sc2c(c1C(=O)c1ccc(Br)cc1)CCCC2` [Compound 20h], the “Antagonist activity, % (% inhibition of specific equilibrium binding of [3H]8-cyclopentyl-1,3-dipropylxanthine)” value in experiment [2] is recorded as 56%. The “AE Score, %” value in experiment [1] is listed as 83 ± 5%. Turning to `Nc1sc2c(c1C(=O)c1ccc(I)cc1)CCCC2` [Compound 20i], in experiment [2], the “Antagonist activity, % (% inhibition of specific equilibrium binding of [3H]8-cyclopentyl-1,3-dipropylxanthine)” value was determined as 31%. The “AE Score, %” value in experiment [1] turned out to be 86 ± 13%. The like results for `Cc1ccc(C(=O)c2c(N)sc3c2CCCC3)cc1` [Compound 20j] were, in that order, 41% and 19 ± 7%.

For `N#Cc1ccc(C(=O)c2c(N)sc3c2CCCC3)cc1` [Compound 20k], the “Antagonist activity, % (% inhibition of specific equilibrium binding of [3H]8-cyclopentyl-1,3-dipropylxanthine)” value in experiment [2] is on record as 19%. Further, in experiment [1], the “AE Score, %” value came to 19 ± 0.9% and the “AE activity (in words)” value is on record as “excellent activity”. On to `Nc1sc2c(c1C(=O)c1ccc(C3CCCCC3)cc1)CCCC2` [Compound 20m], for which the “Antagonist activity, % (% inhibition of specific equilibrium binding of [3H]8-cyclopentyl-1,3-dipropylxanthine)” value in experiment [2] was 45%. In experiment [1], the “AE Score, %” value is 99 ± 6%.

As for `Nc1sc2c(c1C(=O)c1ccc3ccccc3c1)CCCC2` [Compound 20n], in experiment [1], the “AE Score, %” value came to 86 ± 1%. With `CCOC(=O)c1c(N)sc2c1CCCCC2` [Compound 21a], the “Antagonist activity, % (% inhibition of specific equilibrium binding of [3H]8-cyclopentyl-1,3-dipropylxanthine)” value in experiment [2] was determined as 41%. Further, in experiment [1], the “AE Score, %” value came to 0.3 ± 0.01%; the “AE activity (in words)” value is “did not support AE activity; also recorded: None of the cycloalkylthiophenes having a 3-carboxyethyl substituent, namely, 19a, 20a and 21a, was active”.

Turning to `Nc1sc2c(c1C(=O)c1cccc(I)c1)CCCCC2` [Compound 21e], the “AE Score, %” value in experiment [1] was 86 ± 9%.

Regarding `Nc1sc2c(c1C(=O)c1ccc(F)cc1)CCCCC2` [Compound 21f], in experiment [1], the “AE Score, %” value worked out at 22 ± 2.7%. The same measure, in the same setting: the figure for `Nc1sc2c(c1C(=O)c1ccc(Cl)cc1)CCCCC2` [Compound 21g] is 65 ± 6.7%; for `COc1ccc(C(=O)c2c(N)sc3c2CCCCC3)cc1` [Compound 21k] it is 85 ± 10%.
